Values quoted from earlier work, collected in patent US20260234616A1, “CELL-PENETRATING PEPTIDES, CONJUGATES THEREOF, AND METHODS OF THEIR USE” (PepGen Inc., priority 2022, published 2026).

System: dystrophin
Conditions: DMD patients; reported by the sponsor

eteplirsen
levels of dystrophin restoration in patients: approximately 1 % of normal
